Laboratory results as given in US11827629B2, “CDGSH iron sulfur domain 2 activators and use thereof” (National Health Research Institutes, priority 2021, dated 2023).

What was measured:
[1] = system: Cisd2 promoter with firefly luciferase reporter; experiment: Cisd2-luciferase reporter assay in HEK293-CISD2 cells; type: cell-based; details: Homo sapiens, 24 hours incubation, luciferase luminescence
Summary of the method: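 HEK293 cells stably carrying Cisd2 promoter-firefly luciferase, seeded at 3×10^3 cells/well, exposed to compounds 24 h at 37 °C; luminescence read after 5 min ONE-Glo at room temperature. EC50 reported in classes: A <1 μM, B 1-5 μM, C 5-10 μM.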

Male C57BL/6 mice = experiment: In vivo doxorubicin-induced cachexia and hepatotoxicity; details: 1 mg/kg i.p. twice a day for 2 days, doxorubicin 25 mg/kg i.p.
Method: Compound 28 was used in rescuing doxorubicin-induced cachexia and hepatotoxicity in the following in vivo study.
Male C57BL/6 mice between 7 and 8 months were pretreated with Compound 28 (1 mg/kg) or a vehicle (1.5 wt % of DMF and 3 wt % of Cremophor® EL in PBS) via intraperitoneal injection (i.p.) twice a day for 2 days. At day 0, 1 hour after the treatment with compound 28, doxorubicin (25 mg/kg, i.p.) or another vehicle (10% DMSO in normal saline) were injected into mice.
Different tissues including livers, cardiac muscle (left ventricle), skeletal muscle (gastrocnemius), brown adipose tissue, and white adipose tissue were weighted and collected after mice were sacrificed. The tissues were fixed with 10% formalin at 4° C. overnight, processed in a tissue processor, and then embedded in paraffin. H&E of tissue sections (3-4 m) were carried out by a standard protocol as described above.

## O=C(CS(=O)(=O)c1nccs1)N1Cc2ccccc2C1 [Compound 28, 1-(1,3-dihydro-2H-isoindol-2-yl)-2-(1,3-thiazol-2-ylsulfonyl)ethanone]
[1]
  EC50: < 1000 nM
Male C57BL/6 mice
  effect on doxorubicin-induced hepatotoxicity: alleviated doxorubicin-induced hepatotoxicity
Male C57BL/6 mice; tissue weights
  effect on doxorubicin-induced cachexia: alleviated doxorubicin-induced hepatotoxicity and cachexia
